One experiment deals with T1, EphA2 (Homo sapiens, UniProt P29317).
T1 construct: enrichment of ATP-pocket containing proteins (mainly kinases) from complex native cell lysates; endogenous in cells; host or cells: native cell lysate
The experiment is described as follows: Chemical proteomic affinity matrix competition binding in cell lysate (Kd app, CATDS). The following applies: CATDS (EphA2) at the concentration corresponding to the Kd app for EphA2; compared with dasatinib. From the text:
Several of the compounds according to the invention were further evaluated by a chemical proteomic approach facilitating the identification and quantification of drug-protein interactions. This technology utilizes an affinity matrix comprising five immobilized broad spectrum kinase inhibitors for enrichment of ATP-pocket containing proteins (mainly kinases) from complex native cell lysates as described in Bantscheff et al, Nat Biotechnol., 2007, 25(9):1035-44 and Médard et al, L Proteome Res., 2015, 14(3):1574-86. Coupled to quantitative mass spectrometry readout, this chemical proteomic approach allows for the simultaneous identification and quantification of about 300 native human protein kinases. […]
The compounds according to the invention were tested in nine different concentrations (including a DMSO control) ranging from 3 nM to 30 µM. […] Compound selectivity was determined by calculation of a selectivity score named CATDS (concentration and target dependent selectivity). […] It is calculated by dividing the target binding of the target protein (in this case EphA2) by the sum of all target bindings (including the target protein of interest, in this case EphA2) at a particular concentration (in this case the concentration corresponding to the Kd^app value of a compound for EphA2). […]

A further experiment relates to SF-268 cells. The experiment is described as follows: SF-268 cell viability, resazurin-based assay. The following applies: Homo sapiens, SF-268, 72 h; three days of treatment; three biological and three technical replicates, Fig. 8; read-out: cellular potency (EC50), SF-268 cell viability. The procedure: The dependency of viability of SF-268 cells on EphA2 expression was validated by siRNA knockdown experiments. SF-268 cells were treated with four siRNAs targeting EphA2 expression independently and a mixture of the four siRNAs. Experiments were performed in three biological and three technical replicates. Cell death siRNA and scrambled siRNA were used as positive and negative controls. After six days of treatment, cellular viability was determined by a resazurin-based assay system measuring the reduction of resazurin as a function of metabolic activity.
Cellular potency was determined as EC50 value after three days of treatment using the above mentioned resazurin-based assay system in three biological and three technical replicates.
Background: Resazurin is reduced to fluorescent resorufin, in cell work by metabolically active cells.

T1 sequence (P29317 24-976): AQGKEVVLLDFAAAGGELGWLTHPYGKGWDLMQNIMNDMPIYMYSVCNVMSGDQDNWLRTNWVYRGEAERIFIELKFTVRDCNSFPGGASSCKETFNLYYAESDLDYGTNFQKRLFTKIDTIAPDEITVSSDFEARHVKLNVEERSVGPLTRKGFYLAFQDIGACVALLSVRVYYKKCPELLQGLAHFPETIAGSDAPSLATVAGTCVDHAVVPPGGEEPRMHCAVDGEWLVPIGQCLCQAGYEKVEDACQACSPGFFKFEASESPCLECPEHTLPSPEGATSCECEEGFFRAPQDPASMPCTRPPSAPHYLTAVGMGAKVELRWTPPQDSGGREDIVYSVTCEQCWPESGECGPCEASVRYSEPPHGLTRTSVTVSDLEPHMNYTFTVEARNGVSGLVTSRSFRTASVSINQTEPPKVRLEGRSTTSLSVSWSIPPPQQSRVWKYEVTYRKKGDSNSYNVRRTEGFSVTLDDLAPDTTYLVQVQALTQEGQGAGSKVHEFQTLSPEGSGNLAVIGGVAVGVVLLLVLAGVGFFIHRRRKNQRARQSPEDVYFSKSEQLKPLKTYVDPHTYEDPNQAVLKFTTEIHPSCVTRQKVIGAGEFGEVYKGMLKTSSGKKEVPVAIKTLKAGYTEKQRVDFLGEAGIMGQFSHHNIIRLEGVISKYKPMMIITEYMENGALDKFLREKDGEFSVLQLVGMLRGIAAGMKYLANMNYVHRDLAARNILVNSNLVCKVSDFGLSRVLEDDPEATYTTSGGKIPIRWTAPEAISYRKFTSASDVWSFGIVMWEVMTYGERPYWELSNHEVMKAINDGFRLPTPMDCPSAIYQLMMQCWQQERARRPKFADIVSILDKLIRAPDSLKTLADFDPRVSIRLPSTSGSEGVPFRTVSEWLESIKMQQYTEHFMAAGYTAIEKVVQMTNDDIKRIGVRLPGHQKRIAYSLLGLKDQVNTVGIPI

For `Cc1cccc(Cl)c1NC(=O)c1cnc(Nc2cccc(C(=O)NC3CCNCC3(F)F)c2)s1` (stereo not shown) [Compound 28, N-(2-chloro-6-methylphenyl)-2-((3-((3,3-difluoropiperidin-4-yl)carbamoyl)phenyl)amino)thiazole-5-carboxamide], on EphA2, the “selectivity for EphA2 binding (CATDS)” value is on record as “improved selectivity”.

In general, EC50 refers to the concentration that produces a half-maximal response. For `Cc1cccc(Cl)c1NC(=O)c1cnc(Nc2cc(N3CCOCC3)cc(N3CCOCC3)c2)s1` [Compound 40, N-(2-chloro-6-methylphenyl)-2-((3,5-dimorpholinophenyl)amino)thiazole-5-carboxamide], the “selectivity for EphA2 binding (CATDS)” value at EphA2 was “improved selectivity”. Besides, the EC50 in the experiment with SF-268 cells was found to be 94 nM. As to `Cc1cccc(Cl)c1NC(=O)c1cnc(Nc2cc(N3CCOCC3)cc(S(C)(=O)=O)c2)s1` [Compound 41, N-(2-chloro-6-methylphenyl)-2-((3-(methylsulfonyl)-5-morpholinophenyl)amino)thiazole-5-carboxamide], in the experiment with SF-268 cells, the EC50 was found to be 504 nM.
